{"source": "paper PMC10686834", "about": "“Targeting myeloid chemotaxis to reverse prostate cancer therapy resistance” (Nature, 2023)", "key": {"monkey [1]": {"system": "monkey", "conditions": "in vivo; cited from earlier work"}, "[2]": {"test": "Pharmacokinetics of AZD5069 in plasma, non-compartmental analysis (AUClast, Cmax)", "assay_type": "in vivo, human", "description": "Specific pharmacokinetic collection time points are listed in the study protocol. Pharmacokinetic parameters were calculated using non-compartmental analysis (Phoenix v.8.1, Certara). Fresh tumour needle core biopsies from matched disease sites (lymph node, bone and soft tissue) were collected at baseline (within 1 week of treatment commencement) and approximately 2 weeks after starting AZD5069 in patients when this was deemed safe and feasible. Tumour biopsies were obtained from 18 patients under computerized tomography or ultrasound guidance by an experienced interventional radiologist (N.T.). […] One patient had only a baseline tumour biopsy. Two patients underwent on-treatment biopsies after 4 weeks. Immediately after biopsy, tumour samples were immersed in 10% neutral-buffered formalin for 24 hours. Samples were processed through paraffin wax for histologic examination. Three 3 μm sections of formalin-fixed paraffin-embedded (FFPE) tumour biopsy were stained with haematoxylin and eosin to confirm the presence of tumour by a pathologist (B.G.). Tumour samples with insufficient tumour content or significant crushed artefact were excluded from analyses (B.G.). Baseline FFPE samples were analysed by IHC, and pre- and post-treatment FFPE biopsies were analysed by IF and targeted RNA profiling using HTG EdgeSeq. All samples that failed initial analyses by IF were restained at least once. A list of tumour samples and their methods of analyses are detailed in Supplementary Table 4."}, "CACO-2 cells": {"system": "CACO-2 cells", "set-up": "method as in AZD5069 Investigator Brochure (IB)", "conditions": "at 0.85 μmol/L, ref AZD5069 Investigator Brochure (IB); cited from earlier work"}, "[3]": {"system": "patients with bronchiectasis", "conditions": "cited from earlier work"}, "blood neutrophils": {"system": "blood neutrophils", "test": "Peripheral blood neutrophil counts and NLR on treatment", "assay_type": "in vivo, human", "description": "Secondary endpoints were:(i) the rate of objective response, with objective response defined as confirmed soft tissue objective response by Response Evaluation Criteria in Solid Tumors v.1.1 in those with measurable disease, and/or PSA decline ≥50% confirmed 4 weeks or later, and/or CTC count conversion from ≥5 per 7.5 ml of blood at baseline to <5 per 7.5 ml of blood at nadir; (ii) pharmacokinetic parameters, including maximum concentration, area under the concentration–time curve; and (iii) pharmacodynamic changes including identifying patients whose blood NLR, neutrophil, and intratumour myeloid cell density decrease. Exploratory endpoints included blood cytokine levels and evaluation of tumour molecular profile on response.\nThe association between myeloid cell densities and NLR was evaluated in two cohorts (Supplementary Table 1). Cohort 1 consisted of 48 mCRPC biopsies from patients treated at ICR/RMH, Oncology Institute of Southern Switzerland and Belfast City Hospital between 2012 and 2021. All patients provided informed consent, and enrolled onto institutional protocols approved by the local RECs (REC reference: 04/Q0801/60, 11/LO/2019). The validation cohort consisted of 57 mCRPC biopsies from patients treated at ICR/RMH between 2012 and 2016 under institutional protocols approved by the local REC (REC references: 04/Q0801/60, 2017-01002 CE TI 3237). […]"}, "CYP2B6": {"system": "CYP2B6", "set-up": "method as in AZD5069 Investigator Brochure (IB)", "conditions": "at concentrations of up to 100 μmol/L; ref AZD5069 Investigator Brochure (IB); cited from earlier work"}, "rat": {"system": "rat", "conditions": "in vivo; cited from earlier work"}, "CYP2E1": {"system": "CYP2E1", "set-up": "method as in AZD5069 Investigator Brochure (IB)", "conditions": "at concentrations of up to 100 μmol/L; ref AZD5069 Investigator Brochure (IB); cited from earlier work"}, "monkey [4]": {"system": "monkey", "conditions": "in vivo; cited from earlier work", "remark": "listed apart in the source"}, "[5]": {"system": "LPS induced pulmonary neutrophilia", "set-up": "method as in AZD5069 Investigator Brochure (IB)", "conditions": "rat; ref AZD5069 Investigator Brochure (IB); cited from earlier work"}, "[6]": {"conditions": "bronchiectasis study NCT01255592, on AZD5069, ref AZD5069 Investigator Brochure (IB)"}}, "data": [{"compound": "C[C@@H](Oc1cc(NS(=O)(=O)N2CCC2)nc(SCc2cccc(F)c2F)n1)[C@@H](O)CO", "note": "[AZD5069]", "values": [{"measurement": "tolerated single doses (maximum feasible dose)", "setting": "monkey [1]", "result": "≤ 350", "unit": "mg/kg BD"}, {"measurement": "AZD5069 exposure (AUClast and Cmax) at steady state versus dose", "setting": "[2]; AZD5069 monotherapy day 15, 40 to 160 mg BD", "result": "increased in a dose-dependent manner"}, {"measurement": "AZD5069 exposure (AUClast) with enzalutamide", "setting": "[2]; combination (28 days) versus monotherapy (14 days), particularly at the higher dose levels", "result": "decreased after the addition of enzalutamide"}, {"measurement": "drug exposure (AUClast and Cmax)", "setting": "[2]; partial responder at AZD5069 80 mg BD", "result": "comparable to those of patients treated at 160 mg BD"}, {"measurement": "efflux ratio", "setting": "CACO-2 cells", "result": 57}, {"measurement": "mean reduction in blood neutrophils", "setting": "[3]; bronchiectasis study NCT01255592, 80 mg BD, ref AZD5069 Investigator Brochure (IB)", "result": "approximately 16%"}, {"measurement": "reduction in sputum neutrophils compared with placebo", "setting": "[3]; bronchiectasis study NCT01255592, after 4 weeks’ treatment, ref AZD5069 Investigator Brochure (IB)", "result": 69, "unit": "%"}, {"measurement": "patients reporting adverse events (AEs)", "setting": "[3]; [6]", "result": "23 of 26"}, {"measurement": "patients who withdrew because of AEs", "setting": "[3]; [6]", "result": 5}, {"measurement": "infections reported", "setting": "[3]; in vivo", "result": 34.6, "unit": "%"}, {"measurement": "effect on blood neutrophil counts and NLRs", "setting": "blood neutrophils; 40 mg BD to 320 mg BD", "result": "decreased blood neutrophil counts and NLRs in a dose-dependent manner"}, {"measurement": "on-target reduction in blood neutrophil counts", "setting": "blood neutrophils; AZD5069 >40 mg BD", "result": "at least 30%"}, {"measurement": "inhibition of CYP2B6", "setting": "CYP2B6", "result": "not an inhibitor"}, {"measurement": "tolerated single doses", "setting": "rat", "result": "up to 600 mg/kg"}, {"measurement": "inhibition of CYP2E1", "setting": "CYP2E1", "result": "not an inhibitor"}, {"measurement": "NOAEL", "setting": "monkey [4]", "result": 262.5, "unit": "mg/kg BD"}, {"measurement": "effect on LPS induced pulmonary neutrophilia", "setting": "[5]", "result": "dose dependent inhibition"}]}]}
